# According to US10966426B2, “Herbicidal compositions comprising phenylpyrimidines” (BASF SE, priority 2016, dated 2021):
# Read-outs that look alike come from different tables or passages of the source.
# Experiments:
# Assay type in all cases: in vivo
# Galium aparine = test: greenhouse pre-emergence treatment, GALAP; settings: Galium aparine, 480 h, 20 DAT, GALAP
# Summary of the method: (§1)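 Damage rated on 0 to 100 scale (0 = normal growth, 100 = no emergence or total above-ground kill) after 2-4 weeks at species-dependent 10-25° C or 20-35° C. Seeds sown per species in loamy sand, ~3.0% humus, treated right after sowing with aqueous spray of single actives or 10% emulsion-concentrate mixtures, then hooded; additive expectation by Colby.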
# Bromus sterilis = test: greenhouse pre-emergence treatment, BROST; settings: Bromus sterilis, 480 h, 20 DAT, BROST
# Summary of the method: as §1
# Apera spica-venti [1] = test: greenhouse post-emergence treatment, APESV; settings: APESV, 20 DAT
# Method: (§2) The culture containers used were plastic pots containing loamy sand with approximately 3.0% of humus as substrate. The seeds of the test plants were sown separately for each species.
# For the post-emergence treatment, the test plants were grown to a plant height of from 3 to 15 cm, depending on the plant habit, and only then treated with the active compounds which had been suspended or emulsified in water. To this end, the test plants were either sown directly, and grown in the same containers, or they were first grown separately as seedlings and transplanted into the test containers a few days prior to treatment.
# (§3) Depending on the species, the plants were kept at 10-25° C. and 20-35° C., respectively.
# (§4) The test period extended over 2 to 4 weeks. During this time, the plants were tended and their response to the individual treatments was evaluated.
# (§5) Evaluation was carried out using a scale from 0 to 100. 100 means no emergence of the plants, or complete destruction of at least the above-ground parts, and 0 means no damage or normal course of growth. A good herbicidal activity is given at values of at least 70, and very good herbicidal activity is given at values of at least 85.
# (§6) The respective stated components A and B, and if appropriate, C were formulated as a 10% by weight strength emulsion concentrate and, with addition of the amount of solvent system, introduced into the spray liquor used for applying the active compound. In the examples, the solvent used was water.
# (§7) In the examples below, using the method of S. R. Colby (1967) “Calculating synergistic and antagonistic responses of herbicide combinations”, Weeds 15, p. 22ff., the value E, which is expected if the activity of the individual active compounds is only additive, was calculated. E=X+Y−(X·Y/100) where X=effect in percent using herbicide A at an application rate a; • Y=effect in percent using herbicide B at application rate b; • E=expected effect (in %) of herbicide A+herbicide B at application rates a+b.
# Papaver rhoeas = test: greenhouse pre-emergence treatment, PAPRH; settings: 20 DAT
# Description: as §2
# For the pre-emergence treatment, the active compounds, suspended or emulsified in water, were applied directly after sowing by means of finely distributing nozzles. The containers were irrigated gently to promote germination and growth and subsequently covered with transparent plastic hoods until the plants had rooted. This cover caused uniform germination of the test plants unless this was adversely affected by the active compounds.
# as §3, §4, §5, §6, §7
# Digitaria sanguinalis = test: greenhouse pre-emergence treatment, DIGSA; settings: Digitaria sanguinalis, 480 h, DIGSA, 20 DAT
# Summary of the method: as §1
# Lolium multiflorum = test: greenhouse pre-emergence treatment, LOLMU; settings: Lolium multiflorum, 480 h, LOLMU, 20 DAT
# Summary of the method: as §1
# Apera spica-venti [2] = test: greenhouse pre-emergence treatment, APESV; settings: 20 DAT
# Summary of the method: as §1
# Stellaria media = test: greenhouse pre-emergence treatment, STEME; settings: 20 DAT
# Summary of the method: as §1
# Poa annua = test: greenhouse pre-emergence treatment, POAAN; settings: 20 DAT
# Summary of the method: as §1
# [3] = 62.5 gai/ha (EC 750 g/l), Table X1, read-out: % activity, solo application
compound,measurement,setting,value
Cc1ccccc1CO[C@@H]1C[C@@]2(C(C)C)CC[C@]1(C)O2 (racemic) [cinmethylin],"% herbicidal activity (weed control, 0-100 scale) at 62.5 g/ha",Galium aparine; [3],0%
same,"% herbicidal activity (weed control, 0-100 scale) at 125 g/ha","Galium aparine; 125 gai/ha (EC 750 g/l), Table X1, read-out: % activity, solo application",20%
same,inhibition at 62.5 g/ha,Bromus sterilis; [3],55%
same,inhibition at 250 g/ha,"Bromus sterilis; 250 gai/ha (EC 750 g/l), Table X1, read-out: % activity, solo application",75%
Cc1ccc(NC(=O)N(C)C)cc1Cl [chlorotoluron],% activity,Apera spica-venti [1]; chlorotoluron solo 62.5 gai/ha,25%
same,% activity,Apera spica-venti [1]; chlorotoluron solo 125 gai/ha,55%
same,% activity,Papaver rhoeas; chlorotoluron solo 62.5 gai/ha,0%
same,% activity,Papaver rhoeas; chlorotoluron solo 500 gai/ha,90%
same,pest or weed control at 125 g/ha,Digitaria sanguinalis; chlorotoluron solo 125 gai/ha,0%
same,pest or weed control at 500 g/ha,Digitaria sanguinalis; chlorotoluron solo 500 gai/ha,65%
same,pest or weed control at 250 g/ha,Lolium multiflorum; chlorotoluron solo 250 gai/ha,0%
same,pest or weed control at 500 g/ha,Lolium multiflorum; chlorotoluron solo 500 gai/ha,10%
same,% activity,Apera spica-venti [2]; chlorotoluron solo 62.5 gai/ha,55%
same,% activity,Apera spica-venti [2]; chlorotoluron solo 250 gai/ha,65%
same,% activity,Apera spica-venti [2]; chlorotoluron solo 500 gai/ha,65%
same,pest or weed control at 62.5 g/ha,Bromus sterilis; chlorotoluron solo 62.5 gai/ha,0%
same,pest or weed control at 250 g/ha,Bromus sterilis; chlorotoluron solo 250 gai/ha,0%
same,pest or weed control at 500 g/ha,Bromus sterilis; chlorotoluron solo 500 gai/ha,0%
same,% activity,Stellaria media; chlorotoluron solo 250 gai/ha,65%
same,% activity,Poa annua; chlorotoluron solo 125 gai/ha,0%
same,% activity,Poa annua; chlorotoluron solo 250 gai/ha,20%
CC(C)N(C(=O)COc1nnc(C(F)(F)F)s1)c1ccc(F)cc1 [flufenacet],"% herbicidal activity (weed control, 0-100 scale) at 15.6 g/ha",Galium aparine; flufenacet SC 500 g/l solo 15.6 gai/ha,0%
same,"% herbicidal activity (weed control, 0-100 scale) at 31.25 g/ha",Galium aparine; flufenacet SC 500 g/l solo 31.25 gai/ha,0%
same,"% herbicidal activity (weed control, 0-100 scale) at 62.5 g/ha","Galium aparine; flufenacet SC 500 g/l solo 62.5 gai/ha, read-out: % activity",0%
same,"% herbicidal activity (weed control, 0-100 scale) at 125 g/ha","Galium aparine; flufenacet SC 500 g/l solo 125 gai/ha, read-out: % activity",40%
same,inhibition at 15.6 g/ha,"Stellaria media; Stellaria media, 480 h, flufenacet SC 500 g/l solo 15.6 gai/ha",0%
same,inhibition at 31.25 g/ha,"Stellaria media; Stellaria media, 480 h, flufenacet SC 500 g/l solo 31.25 gai/ha",0%
same,inhibition at 62.5 g/ha,"Stellaria media; Stellaria media, 480 h, flufenacet SC 500 g/l solo 62.5 gai/ha",0%
same,inhibition at 125 g/ha,"Stellaria media; Stellaria media, 480 h, flufenacet SC 500 g/l solo 125 gai/ha",0%
CSc1nnc(C(C)(C)C)c(=O)n1N [metribuzin],inhibition at 17.5 g/ha,"Apera spica-venti [1]; Apera spica-venti, 480 h, metribuzin WG 70% solo 17.5 gai/ha",10%
same,inhibition at 35 g/ha,"Apera spica-venti [1]; Apera spica-venti, 480 h, metribuzin WG 70% solo 35 gai/ha",55%
same,% activity,"Apera spica-venti [1]; solo, WG 70%, 17.5 gai/ha",10%
same,% activity,"Apera spica-venti [1]; solo, WG 70%, 35 gai/ha",55%
same,% activity,"Apera spica-venti [1]; solo, WG 70%, 70 gai/ha",90%
same,inhibition at 31.25 g/ha,"Papaver rhoeas; Papaver rhoeas, 480 h, metribuzin WG 70% solo 31.25 gai/ha",80%
same,inhibition at 125 g/ha,"Papaver rhoeas; Papaver rhoeas, 480 h, metribuzin WG 70% solo 125 gai/ha",98%
same,% activity,"Papaver rhoeas; solo, WG 70%, 31.25 gai/ha",80%
same,pest or weed control at 31.25 g/ha,"Digitaria sanguinalis; solo, WG 70%, 31.25 gai/ha",40%
same,% activity,"Apera spica-venti [2]; solo, WG 70%, 31.25 gai/ha",30%
same,% activity,"Apera spica-venti [2]; solo, WG 70%, 62.5 gai/ha",50%
same,"% herbicidal activity (weed control, 0-100 scale) at 250 g/ha",Galium aparine; metribuzin WG 70% solo 250 gai/ha,0%
same,pest or weed control at 250 g/ha,"Galium aparine; solo, WG 70%, 250 gai/ha",0%
same,inhibition at 31.25 g/ha,Bromus sterilis; metribuzin WG 70% solo 31.25 gai/ha,0%
same,inhibition at 62.5 g/ha,"Bromus sterilis; metribuzin WG 70% solo 62.5 gai/ha, read-out: % activity",10%
same,inhibition at 250 g/ha,"Bromus sterilis; metribuzin WG 70% solo 250 gai/ha, read-out: % activity",60%
same,pest or weed control at 62.5 g/ha,"Bromus sterilis; solo, WG 70%, 62.5 gai/ha",10%
CCCCCCCCSC(=O)Oc1cc(Cl)nnc1-c1ccccc1 [pyridate],% activity,Apera spica-venti [1]; solo pyridate (WP 45%) 450 gai/ha,0%
same,inhibition at 112.5 g/ha,"Apera spica-venti [1]; Apera spica-venti, 480 h, pyridate solo 112.5 gai/ha",0%
same,inhibition at 225 g/ha,"Apera spica-venti [1]; Apera spica-venti, 480 h, pyridate solo 225 gai/ha",0%
same,inhibition at 450 g/ha,"Apera spica-venti [1]; Apera spica-venti, 480 h, pyridate solo 450 gai/ha",0%
same,inhibition at 900 g/ha,"Apera spica-venti [1]; Apera spica-venti, 480 h, pyridate solo 900 gai/ha",30%
